Series [1] in a line: Tmax in Sprague-Dawley (RjHan:SD) rat at 3 mg/kg, po administered via gavage by LC-MS analysis. It counts as ADME, organism-based. The following applies: in vivo.
A short description of series [2]: Negative chronotropic activity in Wistar rat neonatal cardiomyocytes assessed as decrease in basal beating rate after 7 mins by inverted microscopic method. It counts as functional, cell-based.
Series [3] can be described thus: Negative chronotropic activity in Wistar rat neonatal cardiomyocytes assessed as changes to basal beating rate after 7 mins by inverted microscopic method. It is filed as functional.
A short description of series [4]: n-Octanol-Tris/phosphoric acid buffer buffer distribution coefficient, log D of the compound at pH 7.4 shaken for 30 mins and measured after 24 hrs by UV-HPLC method. It counts as physicochemical.
A short description of series [5]: Stability in human plasma at 10 uM measured over 240 mins by LC-ESI-MS/MS analysis. It counts as ADME, cell-free. The following applies: 4 h.
The nature of series [6]: Stability of compound in HEPES buffer assessed as parent compound remaining at 1 uM after 180 mins by LC-ESI-MS/MS analysis. It is filed as physicochemical. The following applies: read-out: Stability.
A further series has as its target T1, Cytochrome P450 1A2 (Homo sapiens, UniProt P05177).
T1 sequence (P05177 whole entry): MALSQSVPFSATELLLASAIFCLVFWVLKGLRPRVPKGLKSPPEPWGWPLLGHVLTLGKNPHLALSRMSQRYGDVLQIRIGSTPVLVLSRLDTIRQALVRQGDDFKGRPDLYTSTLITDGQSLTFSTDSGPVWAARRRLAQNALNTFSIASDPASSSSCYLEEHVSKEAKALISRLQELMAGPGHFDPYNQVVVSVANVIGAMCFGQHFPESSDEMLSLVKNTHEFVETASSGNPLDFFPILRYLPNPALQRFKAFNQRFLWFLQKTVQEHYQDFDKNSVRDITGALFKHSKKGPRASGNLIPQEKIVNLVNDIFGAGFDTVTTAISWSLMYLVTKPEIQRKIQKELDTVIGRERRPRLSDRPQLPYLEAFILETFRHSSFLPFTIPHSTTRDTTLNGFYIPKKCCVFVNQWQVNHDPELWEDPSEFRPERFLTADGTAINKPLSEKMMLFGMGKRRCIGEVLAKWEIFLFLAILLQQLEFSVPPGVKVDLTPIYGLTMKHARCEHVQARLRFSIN
Kind of series: Inhibition of human CYP1A2 by fluorescence method. It counts as ADME.

The target in another series is T2, Cytochrome P450 2C8 (Homo sapiens, UniProt P10632).
T2 sequence (P10632 whole entry): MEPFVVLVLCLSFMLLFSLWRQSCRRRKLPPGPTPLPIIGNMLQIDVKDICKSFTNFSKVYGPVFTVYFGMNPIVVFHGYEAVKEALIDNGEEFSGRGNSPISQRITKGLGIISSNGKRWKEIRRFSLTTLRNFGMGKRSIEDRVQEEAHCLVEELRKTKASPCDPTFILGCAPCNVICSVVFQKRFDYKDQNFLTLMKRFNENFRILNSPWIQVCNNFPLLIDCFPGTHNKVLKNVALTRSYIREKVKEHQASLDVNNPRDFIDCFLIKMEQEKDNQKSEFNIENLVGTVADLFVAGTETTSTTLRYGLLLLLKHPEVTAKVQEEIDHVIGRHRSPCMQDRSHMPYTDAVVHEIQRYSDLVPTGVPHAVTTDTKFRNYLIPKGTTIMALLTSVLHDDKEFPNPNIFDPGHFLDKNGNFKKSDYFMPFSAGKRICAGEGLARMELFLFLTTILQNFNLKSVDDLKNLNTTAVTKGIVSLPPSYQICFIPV
Kind of series: Inhibition of human CYP2C8 by fluorescence method. It is filed as ADME.

In the next series the target is Cytochrome P450 2C9 (Homo sapiens, UniProt P11712). Kind of series: Inhibition of human CYP2C9 by fluorescence method. It counts as ADME.
Chain of Cytochrome P450 2C9 (P11712 whole entry): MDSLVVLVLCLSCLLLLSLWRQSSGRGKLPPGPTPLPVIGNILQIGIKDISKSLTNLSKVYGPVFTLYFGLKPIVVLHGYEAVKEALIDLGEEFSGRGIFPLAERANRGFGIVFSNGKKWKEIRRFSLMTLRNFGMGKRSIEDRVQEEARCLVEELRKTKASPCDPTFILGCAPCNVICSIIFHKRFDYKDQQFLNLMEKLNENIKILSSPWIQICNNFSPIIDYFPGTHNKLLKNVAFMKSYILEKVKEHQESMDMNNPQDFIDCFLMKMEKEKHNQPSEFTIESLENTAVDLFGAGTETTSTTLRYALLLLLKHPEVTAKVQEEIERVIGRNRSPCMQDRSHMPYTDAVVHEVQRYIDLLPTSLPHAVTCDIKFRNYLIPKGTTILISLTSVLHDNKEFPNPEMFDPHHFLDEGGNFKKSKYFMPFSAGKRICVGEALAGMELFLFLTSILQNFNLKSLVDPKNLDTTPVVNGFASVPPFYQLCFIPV
In the next series the target is Cytochrome P450 2C19 (Homo sapiens, UniProt P33261). As to the kind of experiment: Inhibition of human CYP2C19 by fluorescence method. It is filed as ADME.
Chain of Cytochrome P450 2C19 (P33261 whole entry): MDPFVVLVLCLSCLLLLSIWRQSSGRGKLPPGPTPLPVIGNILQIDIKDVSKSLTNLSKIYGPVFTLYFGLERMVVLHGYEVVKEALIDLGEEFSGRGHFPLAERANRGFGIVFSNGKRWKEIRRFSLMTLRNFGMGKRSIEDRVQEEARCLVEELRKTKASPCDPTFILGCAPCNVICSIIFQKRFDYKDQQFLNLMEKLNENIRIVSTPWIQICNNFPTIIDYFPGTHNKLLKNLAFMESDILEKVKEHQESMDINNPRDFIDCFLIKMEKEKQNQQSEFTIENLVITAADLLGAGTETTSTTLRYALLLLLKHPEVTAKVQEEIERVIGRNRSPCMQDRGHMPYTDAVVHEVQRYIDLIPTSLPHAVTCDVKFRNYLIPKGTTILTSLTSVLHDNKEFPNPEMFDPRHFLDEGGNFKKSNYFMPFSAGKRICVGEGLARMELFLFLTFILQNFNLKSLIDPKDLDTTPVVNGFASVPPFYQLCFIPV
The next series concerns the target Cytochrome P450 2D6 (Homo sapiens, UniProt P10635). Kind of series: Inhibition of human CYP2D6 by fluorescence method. It counts as ADME.
The next series concerns the target Cytochrome P450 3A4 (Homo sapiens, UniProt P08684). As to the kind of experiment: Inhibition of recombinant human CYP3A4 expressed in supersomes using 7-benzyloxyquinoline as substrate by fluorescence method. It is filed as ADME.
Series [7] can be described thus: Apparent permeability across apical to basolateral side in human Caco2 cells at 10 uM after 15 to 90 mins by LC-ESI-MS/MS analysis. The following applies: Caco-2. It is filed as ADME, cell-based. For orientation: Passage across Caco-2 layers is used to estimate intestinal permeability.
Series [8] in a line: Efflux ratio of apparent permeability across basolateral to apical side over apical to basolateral side in human Caco2 cells at 10 uM after 15 to 90 mins by LC-ESI-MS/MS analysis. It is filed as ADME, cell-based. The following applies: Caco-2.
The subject of another series is Cytochrome P450. As to the kind of experiment: Drug metabolism in human liver microsomes assessed as CYP450-mediated formation of [+O] metabolites at 1 uM after 60 mins in absence of NADPH by LC-MS analysis. It is filed as ADME. The note with it: 1 h. (In general: Liver microsomes are a subcellular fraction often used to study metabolism.)
The target in series [9] is T3, Epoxide hydrolase 1/Bifunctional epoxide hydrolase 2 (Homo sapiens, UniProt P07099+P34913).
T3 sequence (P07099 whole entry): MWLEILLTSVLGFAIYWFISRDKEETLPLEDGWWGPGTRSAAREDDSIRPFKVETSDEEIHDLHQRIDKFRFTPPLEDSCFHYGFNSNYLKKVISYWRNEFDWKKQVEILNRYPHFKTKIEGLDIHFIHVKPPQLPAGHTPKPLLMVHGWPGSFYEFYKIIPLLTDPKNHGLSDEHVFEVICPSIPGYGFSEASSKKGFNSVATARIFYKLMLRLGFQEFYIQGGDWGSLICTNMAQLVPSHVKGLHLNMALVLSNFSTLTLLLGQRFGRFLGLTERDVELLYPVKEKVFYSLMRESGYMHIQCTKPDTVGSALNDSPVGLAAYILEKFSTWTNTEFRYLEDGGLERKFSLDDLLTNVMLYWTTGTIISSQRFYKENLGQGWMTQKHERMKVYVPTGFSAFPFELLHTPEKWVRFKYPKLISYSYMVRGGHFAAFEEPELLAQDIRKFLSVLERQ
T3 sequence (P34913 whole entry): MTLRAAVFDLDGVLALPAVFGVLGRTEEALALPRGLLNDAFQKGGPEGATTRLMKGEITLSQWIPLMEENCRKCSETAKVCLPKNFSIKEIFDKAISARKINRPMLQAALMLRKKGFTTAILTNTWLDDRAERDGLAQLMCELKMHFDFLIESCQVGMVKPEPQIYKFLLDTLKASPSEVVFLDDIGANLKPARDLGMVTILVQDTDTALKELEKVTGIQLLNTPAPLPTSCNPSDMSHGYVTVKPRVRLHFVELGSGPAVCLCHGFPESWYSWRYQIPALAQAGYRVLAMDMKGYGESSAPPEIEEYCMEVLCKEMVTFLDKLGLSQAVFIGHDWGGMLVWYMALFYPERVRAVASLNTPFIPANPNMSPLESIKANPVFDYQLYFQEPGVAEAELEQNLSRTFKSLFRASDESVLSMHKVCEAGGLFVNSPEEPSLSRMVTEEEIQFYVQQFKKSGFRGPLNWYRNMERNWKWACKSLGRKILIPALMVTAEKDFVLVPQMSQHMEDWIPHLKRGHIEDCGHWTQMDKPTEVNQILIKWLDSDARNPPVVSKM
As to the kind of experiment: Drug metabolism in human liver microsomes assessed as microsomal/soluble epoxide hydrolase mediated formation of [+O + H2O] metabolites at 1 uM after 60 mins in absence of NADPH by LC-MS analysis. It is filed as ADME. The note with it: 1 h.

From ChEMBL document CHEMBL4414645, “Development of Robust 17(R),18(S)-Epoxyeicosatetraenoic Acid (17,18-EEQ) Analogues as Potential Clinical Antiarrhythmic Agents” (J Med Chem, 2019) come the findings set out here.

By Tmax is commonly meant the time from dosing to the highest level. In general, pEC50 refers to the EC50 on a negative log10 scale, so that one unit is a factor of ten. The logD is the decadic logarithm of the distribution of all forms, ionised or not, between an organic phase and buffer at a given pH. Read a high logD as a more lipophilic compound. In general, pIC50 refers to the IC50 on a negative log10 scale, so that one unit is a factor of ten. A word on the Papp A→B: it is how fast a substance crosses the layer from the apical side. Broadly, the efflux ratio is the permeability from basolateral to apical divided by that in the opposite direction, in the common usage.

pEC50, pIC50: −log10 of the molar value.

Chain of Cytochrome P450 2D6 (P10635 whole entry): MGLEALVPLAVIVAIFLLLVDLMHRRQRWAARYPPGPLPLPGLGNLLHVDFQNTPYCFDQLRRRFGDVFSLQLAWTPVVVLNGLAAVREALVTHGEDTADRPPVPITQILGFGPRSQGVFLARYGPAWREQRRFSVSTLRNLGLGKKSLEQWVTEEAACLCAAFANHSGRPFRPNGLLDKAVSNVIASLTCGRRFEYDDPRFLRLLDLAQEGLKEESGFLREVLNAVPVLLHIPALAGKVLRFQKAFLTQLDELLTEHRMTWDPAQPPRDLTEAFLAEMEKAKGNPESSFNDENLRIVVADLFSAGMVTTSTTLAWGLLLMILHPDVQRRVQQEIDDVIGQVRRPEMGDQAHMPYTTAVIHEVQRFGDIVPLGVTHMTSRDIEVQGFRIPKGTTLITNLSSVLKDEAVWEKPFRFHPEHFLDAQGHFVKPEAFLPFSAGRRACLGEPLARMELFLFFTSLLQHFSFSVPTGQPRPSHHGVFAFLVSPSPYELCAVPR
Chain of Cytochrome P450 3A4 (P08684 whole entry): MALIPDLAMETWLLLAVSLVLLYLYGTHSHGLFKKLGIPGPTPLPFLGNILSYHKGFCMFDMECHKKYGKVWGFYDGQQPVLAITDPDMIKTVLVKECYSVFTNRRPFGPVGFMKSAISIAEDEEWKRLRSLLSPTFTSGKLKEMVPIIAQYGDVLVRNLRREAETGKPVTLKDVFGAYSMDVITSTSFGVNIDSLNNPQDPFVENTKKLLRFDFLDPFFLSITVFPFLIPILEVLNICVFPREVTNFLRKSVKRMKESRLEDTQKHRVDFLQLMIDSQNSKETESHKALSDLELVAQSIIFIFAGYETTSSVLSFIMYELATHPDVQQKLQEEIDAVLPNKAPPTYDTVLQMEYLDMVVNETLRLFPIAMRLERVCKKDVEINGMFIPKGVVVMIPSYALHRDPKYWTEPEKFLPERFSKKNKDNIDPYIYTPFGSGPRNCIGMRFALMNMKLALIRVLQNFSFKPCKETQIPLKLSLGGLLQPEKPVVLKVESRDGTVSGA

Take `CNC(=O)C(=O)NCCCC/C=C\CCCCCCCOCC(=O)O`: the time to peak (Tmax) in [1] came out at 1.6 h. In addition, the negative-log EC50 (pEC50) in series [2] is 8.85. Further, in series [3], the Emax was 36.7 bpm. The compound also gave a pH-dependent lipophilicity (logD) in series [4] of -0.03. For the same compound, the Stability entry in series [5] was “Stable”. Also, the remaining at 3 h, 1 µM in [6] was found to be 102%. Besides, the negative-log IC50 (pIC50) at Cytochrome P450 1A2 is under 4.30; on Cytochrome P450 2C8, under 4.30; against Cytochrome P450 2C9 it was under 4.30; against Cytochrome P450 2C19 it was 4.34; against Cytochrome P450 2D6, under 4.30; on Cytochrome P450 3A4, under 4.30. Besides, in series [7], the Papp A→B at 10 µM was determined as 28.2 ×10⁻⁶ cm/s. For the same compound, in series [8], the efflux ratio at 10 µM came to 0.6. For the same compound, the Drug metabolism entry (in the series on Cytochrome P450; in series [9]) was “Metabolite_Notdetected” in each case.
`CNC(=O)C(=O)NCCCC/C=C\CCCCCCCCCc1nnn[nH]1`: the time to peak (Tmax) in [1] turned out to be 2 h. Besides, the pEC50 in series [2] was 8.94. The Emax in [3] turned out to be 37.1 bpm. The compound further gave a logD in series [4] of 2.35. Also, the Stability entry in series [5] was “Stable”. The remaining at 3 h, 1 µM in [6] is 104%. The negative logarithm of the IC50 (pIC50) against Cytochrome P450 1A2 was under 4.30; at Cytochrome P450 2C8, under 4.30; against Cytochrome P450 2C9, 5.27; against Cytochrome P450 2C19 it was 6.68; against Cytochrome P450 2D6 it was 4.36; on Cytochrome P450 3A4, 5.33. Further, the apical-to-basolateral permeability (Papp A→B) at 10 µM in [7] was 10 ×10⁻⁶ cm/s. The efflux ratio at 10 µM in [8] stood at 0.8. For the same compound, the Drug metabolism result (in the series on Cytochrome P450; in [9]) was “Metabolite_Notdetected” throughout.
Turning to `CNC(=O)C(=O)NCCCC/C=C\CCCCCCCCCC(=O)O`, in [1], the Tmax worked out at 1.6 h. The negative-log EC50 (pEC50) in [2] is 8.24. Further, the Emax in series [3] was determined as 38.2 bpm. This compound came in with a logD in [4] of 2.01. In addition, in series [5], the Stability entry is recorded as “Stable”. In addition, in [6], the remaining at 3 h, 1 µM stood at 85.3%. Moreover, the negative-log IC50 (pIC50) against Cytochrome P450 1A2, on Cytochrome P450 2C8, against Cytochrome P450 2C9, on Cytochrome P450 2C19, against Cytochrome P450 2D6 and at Cytochrome P450 3A4 was under 4.30 each time. In addition, the Papp A→B at 10 µM in series [7] was 5.3 ×10⁻⁶ cm/s. In addition, in series [8], the efflux ratio at 10 µM was determined as 0.4. Moreover, the Drug metabolism entry (in the series with Cytochrome P450; in series [9]) was “Metabolite_Notdetected” throughout.
